Measurements as given in US20220002427A1, “BISPECIFIC ANTIBODY AGAINST BCMA AND CD3 AND AN IMMUNOLOGICAL DRUG FOR COMBINED USE IN TREATING MULTIPLE MYELOMA” (ENGMAB SARL, priority 2016, published 2022).

Test system: H929 MM cells
Assay: H929 MM cell lysis with TCB alone or combined with lenalidomide, anti-PD-1 or daratumumab (co-culture with human leukocytes, flow cytometry)
Assay type: cell-based
Conditions: H929 cells + leucocytes of Donor 1, 48 h
Text: FIGS. 21A-21B. Redirected T-cell lysis of H929 MM cells induced by anti-BCMA/anti-CD3 T-cell bispecific antibodies in combination with thalidomide derivatives (lenalidomide) or immunotherapeutic derivatives (anti-PD1 and anti-CD38 antibodies) as measured by flow cytometry. H929 MM cells were co-cultured with human leukocytes (n=1 or 5) and challenged to suboptimal concentrations of anti-BCMA/anti-CD3 T-cell bispecific antibody 83A10-TCcv (10 pM) (FIG. 21A) or 42-TCBcv (10 pM) (FIG. 21B) alone, in combination with suboptimal concentrations of lenalidomide (1 μM), anti-PD-1 (10 μg/ml) and anti-CD38 daratumumab (10 μg/ml).
Anti-BCMA/anti-CD3 T-cell bispecific antibody (namely 83A10-TCBcv or 42-TCBcv) was combined with three drugs representing different types of immunotherapy: lenalidomide, anti-PD-1 antibody and anti-CD38 antibody daratumumab. H929 MM cells were co-cultured with human leukocytes from healthy donors (n=1 or 5) in RPMI-1640 medium supplemented with 10% FBS, 0.5% gentamincin and 1% L-Glutamine at 37° C. in a humidified 5% CO2 incubator and challenged to suboptimal concentrations of 83A10-TCBcv (10 pM) (n=5) or 42-TCBcv (10 pM) (n=1) alone, or in combination with lenalidomide (1 μM), anti-PD-1 antibody (10 μg/ml) and anti-CD38 antibody daratumumab (10 μg/ml). […] FIG. 21B and Table 28 show the percentage of MM cell lysis when H929 cells and leucocytes from one healthy donor were exposed to 42-TCBcv (10 pM) combined with lenalidomide (1 μM), anti-PD-1 antibody (10 μg/ml) and anti-CD38 antibody daratumumab (10 μg/ml) for 48 h of culture.

[1] = with TCB (combination with 42-TCBcv)

Compound	MM cell lysis [1] [%]	MM cell lysis (without TCB) [%]
Daratumumab: anti-CD38 antibody (US20150246123)	42.29	33.06
Nc1cccc2c1CN(C1CCC(=O)NC1=O)C2=O (stereo not shown) [lenalidomide]	13.27	−1.78
